Measurements reported in PubChem BioAssay AID652047 (Broad Institute, 2013).

Each molecule was assayed on P. falciparum 3D7 in RBCs, SYBR Green DNA fluorescence (assay: growth inhibition of P. falciparum 3D7, dose response, 3D7 strain, red blood cells, SYBR Green, cherry-picked (AID 652047)).

SMILES	AC35 [µM]
CC1CCc2c(C(=O)Nc3ccccn3)csc2C1 (centres undefined)	28.7
O=C(Nc1cc(Oc2ccc(Cl)cc2)cc([N+](=O)[O-])c1)c1ccco1	6.1
O=C(N/N=C/c1ccc[nH]1)c1sc2ccccc2c1Cl	8.77
CCOC(=O)c1cnc(-n2nc(C)cc2C)nc1NC1CCCC1	2.6
C=C(C)COc1ccc(-c2[nH]ncc2-c2ccc(Br)cc2)c(O)c1	3.55
Oc1ccc(Br)cc1/C=N/Nc1ccccn1	2.68
C=C1C(=O)C23CCC4C(C)(C(=O)OC)CCCC4(C)C2CCC1(O)C3 (centres undefined)	1.99
O=S1OC(c2ccccc2)c2cc(Cl)ccc21 (centres undefined)	11.3
CC/C(=N/NC(=O)c1ccccc1O)c1c(C)[nH]n(-c2ccccc2)c1=O	34.9
O=C1c2cc(F)ccc2-n2c1nc1ccccc1c2=O	< 0.0235
CC(C)(C)n1nc(Cc2cccc3ccccc23)c2c(N)ncnc21	25.7
O=[N+]([O-])c1ccc2c(OCc3nnc(-c4ccccc4Br)o3)ncnc2c1	25.5
CC1=CC(=O)C=C(C)C1=NOS(=O)(=O)c1ccccc1	17.4
C=CCNc1nc(-c2ccccn2)nnc1-c1ccccc1	1.21
O=C(COc1ccccc1F)Nc1nc(-c2ccccn2)cs1	10.5
CC(=O)Oc1ccc(OC(C)=O)c(SCCCCCCl)c1	4.82
Fc1ccc(CCNC(=S)Nc2ccc(F)c(Cl)c2)cc1	15.9
Cc1nc(-c2ccccn2)nc(N(C)c2ccccc2)c1Cl	3.26
O=C(OCC(=O)C12CC3CC(CC(C3)C1)C2)c1ccc(O)cc1	44.4
CN(Cc1ccc(Cl)s1)C(=O)CCl	1.69

SMILES	AC35 [µM]
CCC(C)Sc1cccc(-c2nc3ccccn3c2NCc2ccccc2)c1 (centres undefined)	16.8
O=S(=O)(Nc1ccccc1)c1ccc(Oc2ncc(C(F)(F)F)cc2Cl)cc1	28.7
CN(C)c1nc(-c2ccccn2)nnc1-c1ccccc1	1.13
C=CCOC(Cn1ccnc1)c1ccc(Cl)cc1Cl (centres undefined)	6.08
O=C(Nc1ccc(Br)c(C(F)(F)F)c1)c1ccccc1	20
CCCCCCSc1ccc(-c2nc3ccccn3c2NCCCC)cc1	12.2
O=C(CCCSc1ccccc1)Nc1nc(-c2ccccn2)cs1	6.69
COc1ccc(O)c(C(=O)CC(=O)c2ccc(F)cc2)c1	16.1
Cc1ccc(Sc2ccc(NC(=O)CCl)cc2)cc1C	0.422
CCc1cc(SC#N)cc(C)c1NC(=O)CCl	7.77
O=C(NOC(=O)c1ccccc1)c1ccccc1	20.9
O=CC1=C(c2ccccc2)Oc2ccccc2O1	8.24
CCn1c2ccc(C)cc2c2nc3cc(C(=O)O)ccc3nc21	42.6
O=C(Nc1ccc(Cl)cc1C(=O)Nc1ccc(Br)cn1)c1ccco1	15.1
COc1cnc(-c2ccccn2)nc1Oc1ccc(C(C)(C)C)cc1	2.05
CCOC(=O)c1cc2c(=Cc3ccc(N(C)C)cc3)c3ccccc3n2[n+]1C	1.94
CCCCOC(=O)/C=C/c1ccc(OC(=O)OC)c(OC(=O)OC)c1	14.7
CCCn1nc(C(=O)N2CCN(S(=O)(=O)c3ccc(C)c(C)c3)CC2)c2ccccc2c1=O	11.7
S=C(Nc1ccc(Oc2ccccc2)cc1)NC1CCCCCC1	12.7
Cc1cccc(NC(=S)NC(C)CCc2ccccc2)c1 (centres undefined)	5.69

SMILES	AC35 [µM]
Cc1cc(/C=C2\SC(=S)N(C)C2=O)c(C)n1-c1ccc(O)cc1	10.8
C[C@@]12CCC3[C@@](CCC4[C@@]3(C)CCC[C@@]4(C)C(=O)NCc3ccccc3)(CC1=O)C2 (some centres undefined)	30.2
CC(C)(C)C(=O)C(Oc1ccc(Cl)cc1)n1cncn1 (centres undefined)	36.6
Cc1cc(C)c(C(=O)CC(=O)c2cccnc2)c(C)c1	6.77
O=c1c2ccccc2nc(-c2cccc(Cl)c2)n1O	25.4
O=C(Nc1nnc(-c2ccccc2)o1)c1ccc(Cl)cc1	12.4
CN(C)c1ccc(C=c2c3ccccc3n3c2c2c([n+]3C)CCCC2)cc1	0.15
COc1ccc2oc(=O)c(-c3csc(Nc4cccc(O)c4)n3)cc2c1	15.7
CCOC(=O)N1C(=O)C2(CCCCC2)N(c2ccccc2Cl)C1=S	12.8
COc1ccc(N=N/C(=C\O)C(=O)c2cccs2)cc1	7.16
Cc1cc(Cl)ccc1C(=O)C1CCCN(C(=O)c2cncs2)C1 (centres undefined)	26
COc1cc2cnc(-c3ccccc3)c(C(=O)c3ccc(F)cc3)c2cc1OC	34.4
O=c1c2ccccc2nc(-c2ccc(-c3ccccc3)cc2)n1-c1ccncc1	3.6
O=C(Nc1nnc(-c2cccs2)o1)c1cccc(Oc2ccccc2)c1	23
Cc1c(Cc2ccccc2)c(NCCN(C)C)n2c(nc3ccccc32)c1C#N	7.32
Oc1ccc(N=Nc2ccc3c(c2)OCCO3)c2cccnc12	0.706
COc1cnc(-c2ccccn2)nc1Sc1ccccc1	4.67
O=C(CSc1ccc(-c2ccccn2)nn1)NCc1ccc(F)cc1	28.7
O=C(COc1ccc([N+](=O)[O-])cc1)Nc1nc(-c2ccccn2)cs1	6.63
